From ChEMBL document CHEMBL1131794, “The synthesis and evaluation of 6-alkylidene-2'beta-substituted penam sulfones as beta-lactamase inhibitors” (Bioorg Med Chem Lett, 1999)

Key:
Beta-lactamase TEM = Beta-lactamase TEM (Escherichia coli, UniProt P62593); assay: Inhibitory activity against serine Beta-lactamase TEM derived from […]; format: single protein
Beta-lactamase [1] = target: T1, Beta-lactamase (Staphylococcus aureus, UniProt P00807); assay: Inhibitory activity against serine Beta-lactamase derived from Staphylococcus aureus
T1 sequence (P00807 whole entry): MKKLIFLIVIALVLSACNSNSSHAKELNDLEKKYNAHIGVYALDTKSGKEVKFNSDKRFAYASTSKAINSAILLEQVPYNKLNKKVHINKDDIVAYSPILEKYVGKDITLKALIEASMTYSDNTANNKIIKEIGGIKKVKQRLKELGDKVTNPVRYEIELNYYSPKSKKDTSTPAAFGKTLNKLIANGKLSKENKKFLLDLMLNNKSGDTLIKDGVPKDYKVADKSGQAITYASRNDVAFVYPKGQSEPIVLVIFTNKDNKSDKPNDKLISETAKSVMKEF

Beta-lactamase [2] = target: T1, Beta-lactamase; assay: Inhibitory activity against serine beta-lactamase, PC1 (class A) derived from Staphylococcus aureus
Escherichia coli [3] = assay: In vitro synergistic activity against Escherichia coli C600N + (Sme-1); format: functional
Escherichia coli [4] = assay: In vitro synergistic activity against Escherichia coli 300 + (ampR ampC); format: functional; note: test concentration or dose not given here
Enterobacter cloacae [5] = assay: In vitro synergistic activity against Enterobacter cloacae SC12629 (AmpC inducible); format: functional; note: test concentration or dose not given here
Escherichia coli [6] = assay: In vitro synergistic activity against Escherichia coli GC6265 (TEM-1); format: functional
Pseudomonas aeruginosa = assay: In vitro synergistic activity against Pseudomonas aeruginosa Ps505A1 (AmpC derepressed); format: functional
Klebsiella pneumoniae [7] = assay: In vitro synergistic activity against Klebsiella pneumoniae (ACT-1 + 3 blas, IPM=S); format: functional; note: test concentration or dose not given here
Escherichia coli [8] = assay: In vitro synergistic activity against Escherichia coli GC 6266 clinical isolate; format: functional
Escherichia coli [9] = assay: In vitro synergistic activity against Escherichia coli C600N + (TEM-10); format: functional
Serratia marcescens = assay: In vitro synergistic activity against Serratia marcescens GC 4132 (Amp C); format: functional; note: test concentration or dose not given here
Escherichia coli [10] = assay: In vitro synergistic activity against Escherichia coli 4100 (no beta-lactamase); format: functional
Staphylococcus aureus = assay: In vitro synergistic activity against Staphylococcus aureus (PC1); format: functional; note: test concentration or dose not given here
Klebsiella pneumoniae [11] = assay: In vitro synergistic activity against Klebsiella pneumoniae KC2 (TEM-10); format: functional
Klebsiella aerogenes = assay: In vitro synergistic activity against Enterobacter aerogenes GC 6268 clinical isolate; format: functional; note: test concentration or dose not given here
Aeromonas sobria = assay: In vitro synergistic activity against Aeromonas sobria (Asb A, OXA-12, Asb M); format: functional; note: test concentration or dose not given here
Escherichia coli [12] = assay: In vitro synergistic activity against Escherichia coli C600N + (Imi-1); format: functional
Escherichia coli [13] = assay: In vitro synergistic activity against Escherichia coli C600N + (MIR-1); format: functional
Escherichia coli [14] = assay: In vitro synergistic activity against Escherichia coli C600N + (PSE-1); format: functional
Escherichia coli [15] = assay: In vitro synergistic activity against Escherichia coli C600N + (ampR ampC); format: functional; note: test concentration or dose not given here
Enterobacter cloacae [16] = assay: In vitro synergistic activity against Enterobacter cloacae (Imi-1+AmpC); format: functional
[17] = system: Stenotrophomonas maltophilia; assay: In vitro synergistic activity against Stenotrophomonas maltophilia 1712(L1); format: functional; note: test concentration or dose not given here
Escherichia coli [18] = assay: In vitro synergistic activity against Escherichia coli C600N + (OXA-10) {PSE-2}; format: functional
Escherichia coli [19] = assay: In vitro synergistic activity against Escherichia coli C600N + (P99); format: functional
Escherichia coli [20] = assay: In vitro synergistic activity against Escherichia coli C600N + (IRT-2); format: functional; note: test concentration or dose not given here
Escherichia coli [21] = assay: In vitro synergistic activity against Escherichia coli ATCC 35218 (TEM-1); format: functional
Escherichia coli [22] = assay: In vitro synergistic activity against Escherichia coli C600N + (SHV-4); format: functional
Escherichia coli [23] = assay: In vitro synergistic activity against Escherichia coli C600N + (L1); format: functional
Escherichia coli [24] = assay: In vitro synergistic activity against Escherichia coli C600N + (TEM-1); format: functional
Escherichia coli [25] = assay: In vitro synergistic activity against Escherichia coli GC6267 clinical isolate; format: functional
Escherichia coli [26] = assay: In vitro synergistic activity against Escherichia coli 300 + (TEM-1); format: functional
Escherichia coli [27] = assay: In vitro synergistic activity against Escherichia coli ATCC 25922 (no beta-lactamase); format: functional; note: test concentration or dose not given here
Escherichia coli [28] = assay: In vitro synergistic activity against Escherichia coli 4100 + (CCRA); format: functional
Escherichia coli [29] = assay: In vitro synergistic activity against Escherichia coli C600N + (SHV-1); format: functional
Klebsiella pneumoniae [30] = assay: In vitro synergistic activity against Klebsiella pneumoniae GC 6269 clinical isolate; format: functional; note: test concentration or dose not given here
Escherichia coli [31] = assay: In vitro synergistic activity against Escherichia coli C600N (no beta-lactamase); format: functional
Escherichia coli [32] = assay: In vitro synergistic activity against Escherichia coli 300 (no beta-lactamase, imp mutant); format: functional

Sequence of Beta-lactamase TEM (P62593 whole entry): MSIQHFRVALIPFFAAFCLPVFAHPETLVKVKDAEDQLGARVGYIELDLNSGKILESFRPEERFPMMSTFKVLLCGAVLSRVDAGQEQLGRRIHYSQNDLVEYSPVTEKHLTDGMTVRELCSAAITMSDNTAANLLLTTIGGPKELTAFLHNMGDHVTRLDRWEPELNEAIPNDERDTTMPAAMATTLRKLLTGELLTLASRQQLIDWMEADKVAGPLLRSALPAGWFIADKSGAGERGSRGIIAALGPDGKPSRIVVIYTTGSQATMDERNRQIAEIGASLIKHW

| Structure (SMILES) | IC50 (Beta-lactamase TEM) [nM] | IC50 (Beta-lactamase [1]) [nM] | IC50 (Beta-lactamase [2]) [µM] | MIC (Escherichia coli [3]) [µg/mL] | MIC (Escherichia coli [4]) [µg/mL] | MIC (Enterobacter cloacae [5]) [µg/mL] | MIC (Escherichia coli [6]) [µg/mL] | MIC (Pseudomonas aeruginosa) [µg/mL] | MIC (Klebsiella pneumoniae [7]) [µg/mL] | MIC (Escherichia coli [8]) [µg/mL] | MIC (Serratia marcescens) [µg/mL] | MIC (Escherichia coli [10]) [µg/mL] | MIC (Staphylococcus aureus) [µg/mL] | MIC (Klebsiella pneumoniae [11]) [µg/mL] | MIC (Klebsiella aerogenes) [µg/mL] | MIC (Aeromonas sobria) [µg/mL] | MIC (Escherichia coli [12]) [µg/mL] | MIC (Escherichia coli [13]) [µg/mL] | MIC (Escherichia coli [14]) [µg/mL] | MIC (Escherichia coli [15]) [µg/mL] | other results |
| --- | --- | --- | --- | --- | --- | --- | --- | --- | --- | --- | --- | --- | --- | --- | --- | --- | --- | --- | --- | --- | --- |
| CC(=O)OC[C@@]1(C)[C@H](C(=O)O)N2C(=O)/C(=C/C(=O)O)C2S1(=O)=O (stereo partly drawn) | 180 | 708 | 76.5 | – | – | – | – | – | – | – | – | – | – | – | – | – | – | – | – | – | – |
| C[C@]1(CCl)[C@H](C(=O)O)N2C(=O)/C(=C/C(=O)O)C2S1(=O)=O (stereo partly drawn) | 120000 | 527000 | 2100 | – | – | – | – | – | – | – | – | – | – | – | – | – | – | – | – | – | – |
| C[C@]1(COC(=O)Cc2ccccc2)[C@H](C(=O)O)N2C(=O)/C(=C/c3ccccn3)C2S1(=O)=O (stereo partly drawn) | 40 | 1 | 0.39 | – | – | – | – | – | – | – | – | – | – | – | – | – | – | – | – | – | – |
| C[C@@H](O)[C@H]1C(=O)N2C(C(=O)O)=C(SCCNC=N)C[C@H]12 [IMIPENEM ANHYDROUS] | – | – | – | 64 | < 0.06 | 1 | < 0.06 | 0.5 | 1 | 0.25 | 1 | 0.12 | < 0.06 | < 0.06 | 1 | > 64 | 4 | 0.5 | 0.12 | 0.5 | MIC (Escherichia coli [9]): 0.12 µg/mL; MIC (Enterobacter cloacae [16]): > 64 µg/mL; MIC [17]: > 64 µg/mL; MIC (Escherichia coli [18]): 0.12 µg/mL; MIC (Escherichia coli [19]): 0.25 µg/mL; MIC (Escherichia coli [20]): 0.25 µg/mL; MIC (Escherichia coli [21]): < 0.06 µg/mL; MIC (Escherichia coli [22]): 0.12 µg/mL; MIC (Escherichia coli [23]): 2 µg/mL; MIC (Escherichia coli [24]): 0.12 µg/mL; MIC (Escherichia coli [25]): 0.12 µg/mL; MIC (Escherichia coli [26]): < 0.06 µg/mL; MIC (Escherichia coli [27]): < 0.06 µg/mL; MIC (Escherichia coli [28]): 16 µg/mL; MIC (Escherichia coli [29]): 0.12 µg/mL; MIC (Klebsiella pneumoniae [30]): 0.12 µg/mL |
| C[C@]1(COC(=O)Cc2ccc(O)c(O)c2)[C@H](C(=O)[O-])N2C(=O)/C(=C/c3ccccn3)C2S1(=O)=O.[Na+] (stereo partly drawn) | 60 | 26 | 0.7 | > 64 | > 64 | > 64 | > 64 | > 64 | > 64 | > 64 | > 64 | > 64 | > 64 | > 64 | > 64 | > 64 | > 64 | > 64 | > 64 | > 64 | MIC (Enterobacter cloacae [16]): > 64 µg/mL; MIC [17]: > 64 µg/mL; MIC (Escherichia coli [19]): > 64 µg/mL; MIC (Escherichia coli [20]): > 64 µg/mL; MIC (Escherichia coli [21]): > 64 µg/mL; MIC (Escherichia coli [23]): > 64 µg/mL; MIC (Escherichia coli [25]): > 64 µg/mL; MIC (Escherichia coli [26]): > 64 µg/mL; MIC (Escherichia coli [27]): > 64 µg/mL; MIC (Escherichia coli [28]): > 64 µg/mL; MIC (Klebsiella pneumoniae [30]): > 64 µg/mL |
| CCN1CCN(C(=O)NC(C(=O)N[C@@H]2C(=O)N3[C@@H]2SC(C)(C)[C@@H]3C(=O)[O-])c2ccccc2)C(=O)C1=O.C[C@]1(COC(=O)Cc2ccc(O)c(O)c2)[C@H](C(=O)[O-])N2C(=O)/C(=C/c3ccccn3)C2S1(=O)=O.[Na+].[Na+] (stereo partly drawn) | – | – | – | 8 | 2 | 64 | 4 | 2 | 32 | 16 | 4 | < 0.06 | 1 | 4 | 64 | 1 | 8 | 8 | 2 | 16 | MIC (Escherichia coli [31]): 1 µg/mL; MIC (Escherichia coli [9]): 2 µg/mL; MIC (Enterobacter cloacae [16]): 16 µg/mL; MIC (Escherichia coli [32]): < 6 ng/mL; MIC [17]: > 64 µg/mL; MIC (Escherichia coli [18]): 2 µg/mL; MIC (Escherichia coli [19]): 16 µg/mL; MIC (Escherichia coli [20]): 2 µg/mL; MIC (Escherichia coli [21]): 1 µg/mL; MIC (Escherichia coli [22]): 2 µg/mL; MIC (Escherichia coli [23]): 64 µg/mL; MIC (Escherichia coli [24]): 2 µg/mL; MIC (Escherichia coli [25]): 16 µg/mL; MIC (Escherichia coli [26]): 1 µg/mL; MIC (Escherichia coli [27]): 1 µg/mL; MIC (Escherichia coli [28]): > 64 µg/mL; MIC (Escherichia coli [29]): 2 µg/mL; MIC (Klebsiella pneumoniae [30]): 8 µg/mL |
| CCN1CCN(C(=O)NC(C(=O)N[C@@H]2C(=O)N3[C@@H]2SC(C)(C)[C@@H]3C(=O)[O-])c2ccccc2)C(=O)C1=O.C[C@]1(Cn2ccnn2)C(C(=O)[O-])N2C(=O)C[C@H]2S1(=O)=O.[Na+].[Na+] (stereo partly drawn) | – | – | – | 8 | 4 | > 64 | 4 | 16 | 32 | 16 | 32 | < 0.06 | 1 | 2 | 32 | 64 | 16 | 8 | 1 | 8 | MIC (Escherichia coli [31]): 2 µg/mL; MIC (Escherichia coli [9]): 2 µg/mL; MIC (Enterobacter cloacae [16]): 16 µg/mL; MIC [17]: > 64 µg/mL; MIC (Escherichia coli [18]): 2 µg/mL; MIC (Escherichia coli [19]): 8 µg/mL; MIC (Escherichia coli [20]): 8 µg/mL; MIC (Escherichia coli [21]): 1 µg/mL; MIC (Escherichia coli [22]): 2 µg/mL; MIC (Escherichia coli [23]): > 64 µg/mL; MIC (Escherichia coli [24]): 4 µg/mL; MIC (Escherichia coli [25]): 16 µg/mL; MIC (Escherichia coli [26]): 4 µg/mL; MIC (Escherichia coli [27]): 2 µg/mL; MIC (Escherichia coli [28]): > 64 µg/mL; MIC (Escherichia coli [29]): 2 µg/mL; MIC (Klebsiella pneumoniae [30]): 8 µg/mL |
| C[C@]1(COC(=O)Cc2ccc(O)c(O)c2)[C@H](C(=O)O)N2C(=O)/C(=C/C(=O)O)C2S1(=O)=O (stereo partly drawn) | – | 370 | 116 | – | – | – | – | – | – | – | – | – | – | – | – | – | – | – | – | – | – |
| C[C@]1(COC=O)[C@H](C(=O)O)N2C(=O)/C(=C/C(=O)O)C2S1(=O)=O (stereo partly drawn) | – | 592 | 173 | – | – | – | – | – | – | – | – | – | – | – | – | – | – | – | – | – | – |
| COC(=O)/C=C1/C(=O)N2[C@@H](C(=O)O)[C@](C)(COC(C)=O)S(=O)(=O)[C@H]12 | 2720 | 9510 | – | – | – | – | – | – | – | – | – | – | – | – | – | – | – | – | – | – | – |
